Reference: US20110039824A1, “1,2,3,6-tetrahydroazepino[4,5-b]indole-5-carboxylate nuclear receptor inhibitors” (Wyeth, priority 2008, published 2011)
Structures can show the parent of a compound that is named as a salt.

Molecular target: T1, Gal4/hFXR fusion protein (Homo sapiens, UniProt Q96RI1)
T1 sequence (Q96RI1 262-486 limits assumed): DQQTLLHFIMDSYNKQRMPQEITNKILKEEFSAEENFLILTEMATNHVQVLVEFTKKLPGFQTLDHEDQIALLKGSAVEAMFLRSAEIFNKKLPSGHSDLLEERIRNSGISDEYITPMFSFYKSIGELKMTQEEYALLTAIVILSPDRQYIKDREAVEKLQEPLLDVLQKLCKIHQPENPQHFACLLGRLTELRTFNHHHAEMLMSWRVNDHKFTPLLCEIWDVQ
Assay: Gal4/hFXR fusion protein agonist activity in human 293 cells (luciferase)
Assay type: cell-based
Parameters: Potency Range; other: Gal4/FXR agonist potency in 293 cells
Settings: Gal4/FXR agonist potency in 293 cells; table does not say whether hFXR or mFXR; read-out: Potency Range
Method: • Assay Medium: Phenol red free high glucose Dulbecco's modified Eagle's medium with sodium pyruvate (Cellgro, #17-205-CV) supplemented with 10% fetal bovine serum (Gibco, 16000-044), 1% glutamax (Gibco, 35050-061), 100 units/mL penicillin and 100 μg/mL streptomycin (Gibco, 15140-122). • Culturplate-96 (PerkinElmer, 6005688) • Lysis buffer (Promega, E3971) • Luciferase assay reagent (Promega E1483)
• 1. Compounds to be tested were prepared as 2× stocks in assay medium. • 2. […] The supernatant was removed and the cells were resuspended in 1 ml assay medium. The cells were counted and diluted in assay medium to 200,000 cells per ml. The cells were then plated at 10,000 cells per well in Culturplate-96 plates in 50 uL assay medium. The cells were incubated at 37° C. for approximately 1 hour. • 3. […] All assays included 1 uM GW4064 (Maloney et al., J. Med. Chem., 2000, 43(16), 2971-2974) as a reference standard. • 4. Cells were incubated for 24 hours at 37° C.
• 5. The medium was removed, and the cells were lysed in 25 uL lysis buffer (Promega, E3971). • 6. The plates were analyzed for luciferase activity with luciferase assay reagent (Promega E1483). Plates were read on Victor^3V instrument using the protocol “Shuguang Luciferase assay” (dispense volume=100 uL, plate type=“Packard Viewplate”, measurement height=8 mm from bottom of plate, 5 second read per well).
• 1. For agonist single point screening, data were analyzed in Excel. Each compound was tested in triplicate. • 2. For agonist potency determinations, statistical analysis of the data was performed using a customized Excel/SAS program. Dose response curves were generated using a four parameter (min, max, slope, and EC50 where EC50 is defined as the concentration which corresponds to midway between the estimated max and min) logistic model using log-transformed data (data was transformed on both sides with known lambda=0). • 3.

EC50 [nM] | Structure (SMILES)
500 to 1000 | CC(C)OC(=O)C1=CN(C(=O)c2cccc(CN3C[C@@H](C)N[C@@H](C)C3)c2)CC(C)(C)c2c1[nH]c1ccccc21 [Example 7, Isopropyl 3-(3-{[(3R,5S)-3,5-dimethylpiperazin-1-yl]methyl}benzoyl)-1,1-dimethyl-1,2,3,6-tetrahydroazepino[4,5-b]indole-5-carboxylate]
500 to 1000 | CC(C)OC(=O)C1=CN(C(=O)c2cccc(CN3CCC(O)CC3)c2)CC(C)(C)c2c1[nH]c1ccccc21 [Example 19, Isopropyl 3-{3-[(4-hydroxypiperidin-1-yl)methyl]benzoyl}-1,1-dimethyl-1,2,3,6-tetrahydroazepino[4,5-b]indole-5-carboxylate]
100 to 500 | CC(C)OC(=O)C1=CN(C(=O)c2cccc(CN3C[C@@H](C)O[C@H](C)C3)c2)CC(C)(C)c2c1[nH]c1ccccc21 [Example 5, Isopropyl 3-(3-{[(2R,6R)-2,6-dimethylmorpholin-4-yl]methyl}benzoyl)-1,1-dimethyl-1,2,3,6-tetrahydroazepino[4,5-b]indole-5-carboxylate]
500 to 1000 | CC(C)OC(=O)C1=CN(C(=O)c2cccc(CN(C)C3CCCCC3)c2)CC(C)(C)c2c1[nH]c1ccccc21 [Example 18, Isopropyl 3-(3-{[cyclohexyl(methyl)amino]methyl}benzoyl)-1,1-dimethyl-1,2,3,6-tetrahydroazepino[4,5-b]indole-5-carboxylate]
100 to 500 | CC(C)OC(=O)C1=CN(C(=O)c2cccc(CN3CCSC3)c2)CC(C)(C)c2c1[nH]c1ccccc21 [Example 10, Isopropyl 1,1-dimethyl-3-[3-(1,3-thiazolidin-3-ylmethyl)benzoyl]-1,2,3,6-tetrahydroazepino[4,5-b]indole-5-carboxylate]
100 to 500 | CC(C)OC(=O)C1=CN(C(=O)c2cccc(CN3C[C@@H](C)C[C@H](C)C3)c2)CC(C)(C)c2c1[nH]c1ccccc21 [Example 13, Isopropyl 3-(3-{[(3S,5S)-3,5-dimethylpiperidin-1-yl]methyl}benzoyl)-1,1-dimethyl-1,2,3,6-tetrahydroazepino[4,5-b]indole-5-carboxylate]
1000 to 10000 | CC(C)OC(=O)C1=CN(C(=O)c2cccc(CN3CCC(N4CCCC4)CC3)c2)CC(C)(C)c2c1[nH]c1ccccc21 [Example 12, Isopropyl 1,1-dimethyl-3-{3-[(4-pyrrolidin-1-ylpiperidin-1-yl)methyl]benzoyl}-1,2,3,6-tetrahydroazepino[4,5-b]indole-5-carboxylate]

Further lines, the compound ahead of its results:

Structure (SMILES) | EC50 [nM]
CC(C)OC(=O)C1=CN(C(=O)c2cccc(CN3[C@@H](C)CC[C@@H]3C)c2)CC(C)(C)c2c1[nH]c1ccccc21 [Example 16, Isopropyl 3-(3-{[(2S,5S)-2,5-dimethylpyrrolidin-1-yl]methyl}benzoyl)-1,1-dimethyl-1,2,3,6-tetrahydroazepino[4,5-b]indole-5-carboxylate] | 1000 to 10000
CC(C)OC(=O)C1=CN(C(=O)c2cccc(CNC3CCCCC3)c2)CC(C)(C)c2c1[nH]c1ccccc21 [Example 17, Isopropyl 3-{3-[(cyclohexylamino)methyl]benzoyl}-1,1-dimethyl-1,2,3,6-tetrahydroazepino[4,5-b]indole-5-carboxylate] | 500 to 1000
CC(C)OC(=O)C1=CN(C(=O)c2cccc(CN3CCC(C(N)=O)CC3)c2)CC(C)(C)c2c1[nH]c1ccccc21 [Example 8, Isopropyl 3-{3-[(4-carbamoylpiperidin-1-yl)methyl]benzoyl}-1,1-dimethyl-1,2,3,6-tetrahydroazepino[4,5-b]indole-5-carboxylate] | 500 to 1000
CC(C)OC(=O)C1=CN(C(=O)c2cccc(CN3CCC(N4CCCCC4)CC3)c2)CC(C)(C)c2c1[nH]c1ccccc21 [Example 11, Isopropyl 3-[3-(1,4′-bipiperidin-1′-ylmethyl)benzoyl]-1,1-dimethyl-1,2,3,6-tetrahydroazepino[4,5-b]indole-5-carboxylate] | 1000 to 10000
CC(C)OC(=O)C1=CN(C(=O)c2cccc(CNC3CCNCC3)c2)CC(C)(C)c2c1[nH]c1ccccc21 [Example 22, Isopropyl 1,1-dimethyl-3-{3-[(piperidin-4-ylamino)methyl]benzoyl}-1,2,3,6-tetrahydroazepino[4,5-b]indole-5-carboxylate dihydrochloride] | 1000 to 10000
CC(C)OC(=O)C1=CN(C(=O)c2cccc(CN3CCC(N4CCOCC4)CC3)c2)CC(C)(C)c2c1[nH]c1ccccc21 [Example 9, Isopropyl 1,1-dimethyl-3-{3-[(4-morpholin-4-ylpiperidin-1-yl)methyl]benzoyl}-1,2,3,6-tetrahydroazepino[4,5-b]indole-5-carboxylate] | 1000 to 10000
CC(C)OC(=O)C1=CN(C(=O)c2cccc(CN3C[C@@H](C)O[C@@H](C)C3)c2)CC(C)(C)c2c1[nH]c1ccccc21 [Example 6, Isopropyl 3-(3-{[(2R,6S)-2,6-dimethylmorpholin-4-yl]methyl}benzoyl)-1,1-dimethyl-1,2,3,6-tetrahydroazepino[4,5-b]indole-5-carboxylate] | 500 to 1000
CC(C)OC(=O)C1=CN(C(=O)c2cccc(CN3C[C@H](C)C[C@H](C)C3)c2)CC(C)(C)c2c1[nH]c1ccccc21 [Example 14, Isopropyl 3-(3-{[(R3R,5S)-3,5-dimethylpiperidin-1-yl]methyl}benzoyl)-1,1-dimethyl-1,2,3,6-tetrahydroazepino[4,5-b]indole-5-carboxylate] | 1000 to 10000
CC(C)OC(=O)C1=CN(C(=O)c2cccc(CN3CCCC(C(N)=O)C3)c2)CC(C)(C)c2c1[nH]c1ccccc21 (stereo not drawn) [Example 20, isopropyl 3-{3-[(3-carbamoylpiperidin-1-yl)methyl]benzoyl}-1,1-dimethyl-1,2,3,6-tetrahydroazepino[4,5-b]indole-5-carboxylate] | 500 to 1000
CC(C)OC(=O)C1=CN(C(=O)c2cccc(CN3CCS(=O)(=O)CC3)c2)CC(C)(C)c2c1[nH]c1ccccc21 [Example 21, Isopropyl 3-{3-[(1,1-dioxidothiomorpholin-4-yl)methyl]benzoyl}-1,1-dimethyl-1,2,3,6-tetrahydroazepino[4,5-b]indole-5-carboxylate] | 500 to 1000
CC(C)OC(=O)C1=CN(C(=O)c2cccc(CN3CCSCC3)c2)CC(C)(C)c2c1[nH]c1ccccc21 [Example 15, Isopropyl 1,1-dimethyl-3-[3-(thiomorpholin-4-ylmethyl)benzoyl]-1,2,3,6-tetrahydroazepino[4,5-b]indole-5-carboxylate] | 100 to 500
